Data: ChEMBL document CHEMBL1201862, “PubChem BioAssay data set” (2004)
The source made the active and inactive calls.

Experiments:
[1] = biological target: T1, Sentrin-specific protease 8 (Homo sapiens, UniProt Q96LD8); format: functional;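 also: kinetic enzyme assay of SENP8 cleaving a Nedd8 protein substrate, dose-response confirmation of screening hits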
T1 sequence (Q96LD8 whole entry): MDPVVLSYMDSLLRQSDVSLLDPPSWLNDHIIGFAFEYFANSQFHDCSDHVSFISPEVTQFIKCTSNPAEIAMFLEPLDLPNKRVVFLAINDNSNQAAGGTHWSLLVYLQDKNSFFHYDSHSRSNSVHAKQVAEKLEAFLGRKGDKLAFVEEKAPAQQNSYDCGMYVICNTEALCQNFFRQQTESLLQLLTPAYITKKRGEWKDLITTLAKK

Caspase-6 = biological target: T2, Caspase-6 (Homo sapiens, UniProt P55212); assay: human caspase-6 inhibitors, dose response, biochemical, VEID-R110 fluorescence, cherry-pick (AID 720632)
T2 sequence (P55212 whole entry): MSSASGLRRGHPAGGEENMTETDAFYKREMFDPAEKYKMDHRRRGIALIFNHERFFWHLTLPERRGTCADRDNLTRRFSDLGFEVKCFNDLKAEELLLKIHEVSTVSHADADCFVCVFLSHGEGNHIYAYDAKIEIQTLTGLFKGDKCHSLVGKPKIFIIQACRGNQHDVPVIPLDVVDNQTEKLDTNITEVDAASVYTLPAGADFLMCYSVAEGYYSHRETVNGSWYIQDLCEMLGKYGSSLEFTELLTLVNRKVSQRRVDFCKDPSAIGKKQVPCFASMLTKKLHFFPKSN

[2] = CEM21 lymphoblast cell cytotoxicity, dose response, cytotoxicity control for viral fusion inhibitor project, CellTiter-Glo luminescence, cherry-picked (AID 652042); format: functional, cell-based;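 also: potency for signal decrease meaning cytotoxicity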

SMILES: O=C(N/N=C1\C/C(=N\NC(=O)c2ccncc2)c2ccccc21)c1ccncc1
- IC50 [1]: 1350 nM (active)
- AC50 (Caspase-6): 749 nM (active)

SMILES: CC(=O)N(Cc1ccc(F)cc1)C1=C(NCCc2ccccc2)C(=O)c2ccccc2C1=O
- AC50 [2]: 2160 nM (active)
